In patent publication US20230365554A1, “SUBSTITUTED PYRROLO-PYRIDINONE DERIVATIVES AND THERAPEUTIC USES THEREOF” (The Broad Institute, Inc., priority 2020, published 2023):
pIC50: −log10 of the molar value.

What follows are compounds tested against human CSNK1D (Homo sapiens (Human), UniProt P48730) (assay: CSNK1D assay (ADP-Glo, 1 μM ATP)). Conditions: median, Table 2, read-out: CSNK1D IC50 [mol/l] (median).
Format: biochemical
Description: CSNK1D-inhibitory activity of compounds of the present invention in presence of 1 μM adenosine-tri-phosphate (ATP) was quantified employing the CSNK1D assay as described in the following paragraphs. In essence, the enzyme activity is measured by quantification of the adenosine-di-phosphate (ADP), which is generated as a co-product of the enzyme reaction, via the “ADP-Glo™ Kinase Assay” kit from the company Promega. This detection system works as follows: In a first step the ATP not consumed in the kinase reaction is quantitatively converted to cAMP employing an adenylate cyclase (“ADP-Glo-reagent”), then the adenylate cyclase is stopped and the ADP generated in the kinase reaction converted to ATP which generates in a luciferase-based reaction a glow-luminescence signal (“Kinase Detection Reagent”).
Recombinant fusion protein of N-terminal Glutathion-S-Transferase (GST) and full-length human CSNK1D, expressed by baculovirus infected insect cells and purified via Glutathion affinity chromatography, was purchased from Life Technologies (product no. PV3665) and used as enzyme. As substrate for the kinase reaction the biotinylated peptide Btn-Ahx-SGSEGDSESGEEEG (C-terminus in amide form) was used which can be purchased e.g. from the company Biosyntan (Berlin-Buch, Germany).
For the assay 50 nl of a 100 fold concentrated solution of the test compound in DMSO was pipetted into a white 1536-well microtiter plate (Greiner Bio-One, Frickenhausen, Germany), 2 μL of a solution of CSNK1D in aqueous assay buffer [50 mM HEPES pH 7.5, 10% (v/v) glycerol, 10 mM MgCl2, 50 mM NaCl, 1 mM dithiothreitol, 0.01% (w/v) bovine serum albumin, 0.01% (v/v) Triton X-100] were added and the mixture was incubated for 15 min at 22° C. to allow pre-binding of the test compounds to the enzyme before the start of the kinase reaction. Then the kinase reaction was started by the addition of 3 μL of a solution of ATP (1.67 μM=>final conc. in the 5 μL assay volume is 1 μM) and peptide substrate (50 μM=>final conc. in the 5 μL assay volume is 30 μM) in assay buffer and the resulting mixture was incubated for a reaction time of 30 min at 22° C. The concentration of CSNK1D was adjusted depending of the activity of the enzyme lot and was chosen appropriate to have the assay in the linear range, a typical concentration is about 0.5 ng/μL. The reaction was stopped by the addition of 2.5 μL of “ADP-Glo-reagent” (1:1.5 fold diluted with water) and the resulting mixture was incubated at 22° C. for 1 h to convert the ATP not consumed in the kinase reaction completely […]. Subsequently 2.5 μL of the “kinase detection reagent” (1.2 fold more concentrated than recommended by the producer) were added, the resulting mixture was incubated at 22° C. for 1 h and then the luminescence measured with a suitable measurement instrument (e.g. Viewlux™ from Perkin-Elmer). The amount of emitted light was taken as a measure for the amount of ADP generated and thereby for the activity of the CSNK1D.
The data were normalised (enzyme reaction without inhibitor=0% inhibition, all other assay components but no enzyme=100% inhibition).

human CSNK1D, sequence (P48730 whole entry): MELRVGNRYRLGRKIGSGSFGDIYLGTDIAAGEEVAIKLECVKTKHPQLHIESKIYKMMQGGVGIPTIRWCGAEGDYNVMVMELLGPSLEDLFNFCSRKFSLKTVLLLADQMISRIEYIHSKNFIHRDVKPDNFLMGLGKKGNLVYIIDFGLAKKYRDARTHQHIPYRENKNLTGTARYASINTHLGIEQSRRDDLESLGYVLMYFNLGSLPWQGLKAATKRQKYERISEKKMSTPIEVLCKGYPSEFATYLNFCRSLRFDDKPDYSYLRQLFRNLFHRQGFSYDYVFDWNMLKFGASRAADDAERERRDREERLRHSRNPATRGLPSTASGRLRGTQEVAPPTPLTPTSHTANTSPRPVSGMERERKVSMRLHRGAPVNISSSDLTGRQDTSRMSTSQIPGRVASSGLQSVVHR

Structure (SMILES)	pIC50
CN1CC(CC(F)(F)F)c2[nH]c(-c3ccnc(NC(=O)Cc4ccc(F)cc4)c3)c(Nc3ccccc3)c2C1=O (single isomer, unassigned) [Example 15, N-{4-[3-anilino-5-methyl-4-oxo-7-(2,2,2-trifluoroethyl)-4,5,6,7-tetrahydro-1H-pyrrolo[3,2-c]pyridin-2-yl]pyridin-2-yl}-2-(4-fluorophenyl)acetamide]	7.70
CN1CC(CC(F)(F)F)c2[nH]c(-c3ccnc(NC(=O)Cc4ccc(F)cc4)c3)c(Nc3ccccc3)c2C1=O (single isomer, unassigned) [Example 16, N-{4-[3-anilino-5-methyl-4-oxo-7-(2,2,2-trifluoroethyl)-4,5,6,7-tetrahydro-1H-pyrrolo[3,2-c]pyridin-2-yl]pyridin-2-yl}-2-(4-fluorophenyl)acetamide]	8.15
CN1CC(CC2CC2)c2[nH]c(-c3ccnc(NC(=O)Cc4ccc(F)cc4)c3)c(Nc3ccccc3)c2C1=O (single isomer, unassigned) [Example 19, N-{4-[3-anilino-7-(cyclopropylmethyl)-5-methyl-4-oxo-4,5,6,7-tetrahydro-1H-pyrrolo[3,2-c]pyridin-2-yl]pyridin-2-yl}-2-(4-fluorophenyl)acetamide]	8.19
CN1CC(CC2CC2)c2[nH]c(-c3ccnc(NC(=O)Cc4ccc(F)cc4)c3)c(Nc3ccccc3)c2C1=O (single isomer, unassigned) [Example 20, N-{4-[3-anilino-7-(cyclopropylmethyl)-5-methyl-4-oxo-4,5,6,7-tetrahydro-1H-pyrrolo[3,2-c]pyridin-2-yl]pyridin-2-yl}-2-(4-fluorophenyl)acetamide]	7.54
C[C@H](C(=O)Nc1cc(-c2[nH]c3ccn(C)c(=O)c3c2Nc2ccccc2)ccn1)c1ccc(F)cc1 (single isomer, unassigned) [Example 26]	7.66
C[C@@H](C(=O)Nc1cc(-c2[nH]c3ccn(C)c(=O)c3c2Nc2ccccc2)ccn1)c1ccc(F)cc1 (single isomer, unassigned) [Example 27]	7.55
Cn1ccc2[nH]c(-c3ccnc(NC(=O)C(CC(F)F)c4ccc(F)cc4)c3)c(Nc3ccccc3)c2c1=O (single isomer, unassigned) [Example 29, N-[4-(3-anilino-5-methyl-4-oxo-4,5-dihydro-1H-pyrrolo[3,2-c]pyridin-2-yl)pyridin-2-yl]-4,4-difluoro-2-(4-fluorophenyl)butanamide]	7.28
Cn1ccc2[nH]c(-c3ccnc(NC(=O)C(CC(F)F)c4ccc(F)cc4)c3)c(Nc3ccccc3)c2c1=O (single isomer, unassigned) [Example 30, N-[4-(3-anilino-5-methyl-4-oxo-4,5-dihydro-1H-pyrrolo[3,2-c]pyridin-2-yl)pyridin-2-yl]-4,4-difluoro-2-(4-fluorophenyl)butanamide]	8.15
Cn1cc(CC(F)(F)F)c2[nH]c(-c3ccnc(NC(=O)C(CC(F)F)c4ccc(F)cc4)c3)c(Nc3ccccc3)c2c1=O (single isomer, unassigned) [Example 36, N-{4-[3-anilino-5-methyl-4-oxo-7-(2,2,2-trifluoroethyl)-4,5-dihydro-1H-pyrrolo[3,2-c]pyridin-2-yl]pyridin-2-yl}-4,4-difluoro-2-(4-fluorophenyl)butanamide]	8.12
Cn1cc(CC(F)(F)F)c2[nH]c(-c3ccnc(NC(=O)C(CC(F)F)c4ccc(F)cc4)c3)c(Nc3ccccc3)c2c1=O (single isomer, unassigned) [Example 37, N-{4-[3-anilino-5-methyl-4-oxo-7-(2,2,2-trifluoroethyl)-4,5-dihydro-1H-pyrrolo[3,2-c]pyridin-2-yl]pyridin-2-yl}-4,4-difluoro-2-(4-fluorophenyl)butanamide]	7.82
Cc1cn(C)c(=O)c2c(Nc3ccccc3)c(-c3ccnc(NC(=O)C(C)c4ccc(F)cc4)c3)[nH]c12 (single isomer, unassigned) [Example 40, N-[4-(3-anilino-5,7-dimethyl-4-oxo-4,5-dihydro-1H-pyrrolo[3,2-c]pyridin-2-yl)pyridin-2-yl]-2-(4-fluorophenyl)propanamide]	7.72
